Here are results for seven molecules from patent US5585382A, “Polycyclic and heterocyclic chromophores for bis-imide tumoricidals” (The DuPont Merck Pharmaceutical Company, priority 1995, dated 1996).

Data set [1] has as its system Murine leukemia L1210 cells. Nature of the data set: In vitro growth inhibition of L1210 cells (MTT, 72 hr). The data set is classed as cell-based. The following applies: Mus musculus, read-out: L1210 IC50. An outline of the steps:
(§1)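 Cells seeded on day 0 (1×10^3 L1210 or 8×10^2 Clone A per well), graded compound concentrations added on day 1, then 72 hr at 37 °C. MTT 4 h, formazan dissolved in acidic isopropanol, read at 570/630 nm; IC50 from curve fit as half-maximal inhibition of population doublings, eight replicates.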

For data set [2], the system named is Clone A human colon cancer cells. Nature of the data set: In vitro growth inhibition of Clone A cells (MTT, 72 hr). The data set is classed as cell-based. The following applies: read-out: Clone A IC50. The essentials:
as §1

The next data set relates to DLD-2 human colon tumor. The data set is described as follows: In vivo human tumor xenograft DLD-2 in nude mice. Particulars: for Tumor Growth Inhibition activity against DLD-2 (in words): NCI criteria. From the text: (§2) The DLD-2 human colon tumor and MX-1 human mammary carcinoma, were originally obtained from a surgically-removed primary colon carcinoma or breast tumor respectively. The human tumor lines were maintained by serial passage in athymic nude mice. The MX-1 human mammary carcinoma is an established tumor used by the NCI. The DLD-2 human colon tumor has been well characterized. (Dexter, D. L.; Spremulli, E. N.; Matook, G. M.; Diamond, I.; Calabresi, P. Cancer Research 1982, 42, 5010; Dexter, D. L.; Barbosa, J. A.; Calabresi, P. Cancer Research 1979, 39, 1020.)
(§3) The mice used in these experiments were outbred Swiss mice or CD-1 mice bearing the nude (nu/nu) gene. On Day 0, male and female mice weighing 22-30 g are inoculated with 0.2 mL of a 25% tumor mince. This mince is prepared by mincing fresh tumor tissue, grown subcutaneously in passage mice, in sterile physiological saline. Palpable tumors weighing approximately 50 mg appear in the mice within 7-10 days after inoculation. The mice are pair matched by tumor weight and sex into groups of ten each and the test compounds and vehicle control are administered intravenously (i.v.) once daily for nine consecutive days. A >20% decrease in body weight on Day 5 following compound administration is considered an indication of toxicity. Tumor measurements and body weights are recorded once a week. Fifteen to eighteen days after the initial injection the mice are weighed, sacrificed, and the tumors excised and weighed.
(§4) The efficacy of the test compounds is determined by the extent of tumor growth inhibition in treated versus vehicle-treated control mice. Initial tumor weights (mg) are calculated from the tumor dimensions (mm) obtained from caliper measurements, using the formula for a prolate ellipsoid (mg of tumor weight=(length×width^2)/2). Net tumor weights are calculated for each of the treated groups and the vehicle-treated control group by subtracting the initial tumor weight from the final tumor weight (Day 15-18). Results are expressed as a percentage decrease relative to the mean tumor weight for the control vehicle-treated group.
(§5) Tumor Growth Inhibition= [formula]
(§6) The evaluation criteria of the National Cancer Institute for activity in in vivo cancer models were used. Tumor growth inhibition of 58-89% against the various xenografts is considered moderate activity, and inhibition of ≥90% is considered good to excellent activity. Actual tumor regressions (IR=incomplete regression; FR=full regression) indicate excellent to outstanding activity.
Background: In xenograft studies the graft and the host belong to different species.

Data set [3] concerns MX-1 human mammary carcinoma. Nature of the data set: In vivo human tumor xenograft MX-1 in nude mice. Particulars: for Tumor Growth Inhibition activity against MX-1 (in words): NCI criteria.
Description: as §2, §3, §4, §5, §6

Another data set in a line: physchem. Particulars: water.
Setting [4] is: i.v. once daily for nine days, nude mice.
The mark [5] stands for this setting: 12.5 mg/kg, i.v. once daily for nine days, nude mice.
The mark [6] stands for this setting: Mus musculus, DLD2, iv, 216 h, read-out: DLD-2 percent tumor growth inhibition.
The mark [7] stands for this setting: Mus musculus, iv, 216 h, read-out: MX-1 percent tumor growth inhibition.
The mark [8] stands for this setting: Mus musculus, iv, 216 h, read-out: MX-1 tumor regressions, IR=incomplete regression.
The mark [9] stands for this setting: Mus musculus, DLD2, iv, 216 h, 12.5 mg/kg, i.v. once daily for nine days, nude mice, read-out: DLD-2 percent tumor growth inhibition.

Where two headings read alike, the source gives them in different places.

As usually defined, the IC50 is the concentration that gives 50% inhibition. Usually solubility stands for the concentration that dissolves in the medium under given conditions. A high value points to a readily soluble substance. `CS(=O)(=O)O.CS(=O)(=O)O.C[C@H](CNCCNC[C@@H](C)N1C(=O)c2cccc3c2c(cc2ccncc23)C1=O)N1C(=O)c2cccc3cc([N+](=O)[O-])cc(c23)C1=O` [Example 118, (R,R)-1-[2-(6-Azaphenanthrene-1,10-dicarboximido)propylamino]-2-[2-(3-nitronaphthalene-1,8-dicarboximido)propylamino]ethane Dihydromethanesulfonate]: the IC50 in data set [1] (L1210 cells, 72 hr, MTT) is 0.029 mg/L; in data set [2] (Clone A cells, 72 hr, MTT), 0.0008 mg/L. For the same molecule, in the data set on DLD-2 human colon tumor (6 mg/kg, i.v. once daily for nine days, nude mice), the “DLD-2 tumor regressions, IR=incomplete regression” value (from here on “DLD-2 tumor regressions”) is 7/9. Further, in the data set with DLD-2 human colon tumor (Mus musculus, DLD2, iv, 216 h, 6 mg/kg, i.v. once daily for nine days, nude mice, read-out: DLD-2 percent tumor growth inhibition), the inhibition in vivo at 6 mg/kg is 99%. Moreover, the “Tumor Growth Inhibition activity against DLD-2 (in words)” value in the data set on DLD-2 human colon tumor (setting [4]) is given as “moderate to excellent”. Also, the responders at 3 mg/kg in data set [3] (Mus musculus, iv, 216 h, 3 mg/kg, i.v. once daily for nine days, nude mice, read-out: MX-1 tumor regressions, IR=incomplete regression (converted)) was 100%. In data set [3] (setting [4]), the “Tumor Growth Inhibition activity against MX-1 (in words)” value is reported as “moderate to excellent”. The solubility in “physchem” was 65.1 mg/mL.

For `CS(=O)(=O)O.CS(=O)(=O)O.Cc1cnc2c(c1)cc1c3c(cc([N+](=O)[O-])cc32)C(=O)N([C@H](C)CNCCNC[C@@H](C)N2C(=O)c3cc([N+](=O)[O-])cc4c3c(cc3cc(C)cnc34)C2=O)C1=O` [Example 13, (R, R) -1,2-bis-[2-(3-Nitro-7-methyl-5-azaphenanthrene-1, 10-dicarboximido)propylamino]ethane Dihydromethanesulfonate], the IC50 in data set [1] (L1210, 72 h) was 0.065 mg/L; in data set [2] (72 h), 0.03 mg/L. Also, in the data set on DLD-2 human colon tumor (setting [5]), the “DLD-2 tumor regressions” value is 1/9. In addition, the inhibition in vivo at 12.5 mg/kg in the data set with DLD-2 human colon tumor (setting [6]) is 90%; in data set [3] (setting [7]), 99%. In addition, the “Tumor Growth Inhibition activity against DLD-2 (in words)” value with DLD-2 human colon tumor (setting [4]) is reported as “moderate to excellent”. Also, in data set [3] (setting [8]), the responders at 12.5 mg/kg is 77.8%. Further, in data set [3] (setting [4]), the “Tumor Growth Inhibition activity against MX-1 (in words)” value is on record as “moderate to excellent”. This molecule also gave a solubility in “Solubility in water” of 7.1 mg/mL.

As for `CS(=O)(=O)O.CS(=O)(=O)O.Nc1cc2c3c(cc4cccnc4c3c1)C(=O)N(CCCNCCCCN1C(=O)c3cccc4cc([N+](=O)[O-])cc(c34)C1=O)C2=O` [Example 112, 4-[3-(3-Amino-5-azaphenanthrene-1,10-dicarboximido)propylamino]-1-(3-nitronaphthalene-1,8-dicarboximido)butane Dihydromethanesulfonate], the IC50 in data set [1] (L1210 cells, 72 hr, MTT) worked out at 0.02 mg/L; in data set [2] (Clone A cells, 72 hr, MTT) it was 0.007 mg/L. Also, in the data set on DLD-2 human colon tumor (setting [9]), the inhibition in vivo at 12.5 mg/kg stood at 48%. Moreover, in data set [3] (Mus musculus, iv, 216 h, 25 mg/kg, i.v. once daily for nine days, nude mice, read-out: MX-1 percent tumor growth inhibition), the inhibition in vivo at 25 mg/kg is 98%. For the same molecule, the responders at 25 mg/kg in data set [3] (Mus musculus, iv, 216 h, 25 mg/kg, i.v. once daily for nine days, nude mice, read-out: MX-1 tumor regressions, IR=incomplete regression (converted)) was 37.5%. Besides, in data set [3] (setting [4]), the “Tumor Growth Inhibition activity against MX-1 (in words)” value is “moderate to excellent”. Also, in “Solubility in water”, the solubility came to 7.5 mg/mL.

As to `CS(=O)(=O)O.CS(=O)(=O)O.C[C@H](CNCCNC[C@@H](C)N1C(=O)c2cc([N+](=O)[O-])cc3c2c(cc2cccnc23)C1=O)N1C(=O)c2cc([N+](=O)[O-])cc3c2c(cc2cccnc23)C1=O` [Example 8, (R,R)-1,2-bis-[2-(3-Nitro-5-azaphenanthrene-1,10-dicarboximido)propylamino]ethane Dihydromethanesulfonate], the IC50 stood at 0.03 mg/L in data set [1] (L1210, 72 h) and 0.008 mg/L in data set [2] (72 h). In the data set on DLD-2 human colon tumor (10 mg/kg, i.v. once daily for nine days, nude mice), the “DLD-2 tumor regressions” value was 2/9. Besides, the inhibition in vivo at 10 mg/kg with DLD-2 human colon tumor (setting [6]) stood at 95%. In the data set on DLD-2 human colon tumor (setting [4]), the “Tumor Growth Inhibition activity against DLD-2 (in words)” value is “moderate to excellent”. Moreover, the “MX-1 tumor regressions, FR=full regression” value in data set [3] (5 mg/kg, i.v. once daily for nine days, nude mice) is reported as 2/9. Besides, the responders at 5 mg/kg in data set [3] (setting [8]) was 77.8%. In addition, in data set [3] (setting [4]), the “Tumor Growth Inhibition activity against MX-1 (in words)” value is “moderate to excellent”. Further, in the data set “Solubility in water”, the solubility stood at 4 mg/mL.

As to `CS(=O)(=O)O.O=C1c2cccc3cc([N+](=O)[O-])cc(c23)C(=O)N1CCCCNCCCN1C(=O)c2cc([N+](=O)[O-])cc3c2c(cc2ncccc23)C1=O` [Example 115, 4-[3-(3-Nitro-8-azaphenanthrene-1,10-dicarboximido)propylamino]-1-(3-nitronaphthalene-1,8dicarboximido)butane Hydromethanesulfonate], the IC50 in data set [1] (L1210, 72 h) came to 0.003 mg/L; in data set [2] (72 h) it was 0.001 mg/L. The inhibition in vivo at 10 mg/kg in the data set with DLD-2 human colon tumor (setting [6]) amounted to 90%. For the same molecule, the “Tumor Growth Inhibition activity against DLD-2 (in words)” value in the data set with DLD-2 human colon tumor (setting [4]) is recorded as “moderate to excellent”. Besides, in data set [3] (setting [7]), the inhibition in vivo at 6 mg/kg came out at 95%. Also, the responders at 6 mg/kg in data set [3] (setting [8]) is 12.5%. Besides, the “Tumor Growth Inhibition activity against MX-1 (in words)” value in data set [3] (setting [4]) was “moderate to excellent”. In the data set “Solubility in water”, the solubility came to 0.15 mg/mL.

Consider `CS(=O)(=O)O.O=C1c2cccc3cc([N+](=O)[O-])cc(c23)C(=O)N1CCCCNCCCN1C(=O)c2cccc3c2c(cc2ncccc23)C1=O` [Example 114, 4-[3-(8-Azaphenanthrene-1,10-dicarboximido)propylamino]-1-(3-nitronaphthalene-1,8-dicarboximido)butane Hydromethanesulfonate], for which the IC50 was < 0.01 mg/L in data set [1] (L1210 cells, 72 hr, MTT) and 0.001 mg/L in data set [2] (Clone A cells, 72 hr, MTT). In addition, the “DLD-2 tumor regressions” value with DLD-2 human colon tumor (setting [5]) is reported as 4/8. For the same molecule, the inhibition in vivo at 12.5 mg/kg in the data set with DLD-2 human colon tumor (setting [9]) stood at 99%. Besides, the “Tumor Growth Inhibition activity against DLD-2 (in words)” value in the data set on DLD-2 human colon tumor (setting [4]) was “moderate to excellent”. In addition, the inhibition in vivo at 12 mg/kg in data set [3] (Mus musculus, iv, 216 h, 12 mg/kg, i.v. once daily for nine days, nude mice, read-out: MX-1 percent tumor growth inhibition) is 98%. Moreover, in data set [3] (Mus musculus, iv, 216 h, 12 mg/kg, i.v. once daily for nine days, nude mice, read-out: MX-1 tumor regressions, IR=incomplete regression (converted)), the responders at 12 mg/kg is 62.5%. The “Tumor Growth Inhibition activity against MX-1 (in words)” value in data set [3] (setting [4]) was “moderate to excellent”. In addition, the solubility in “Solubility in water” stood at 0.68 mg/mL.

As to `CS(=O)(=O)O.CS(=O)(=O)O.Cc1cnc2c(c1)cc1c3c(cc([N+](=O)[O-])cc32)C(=O)N([C@H](C)CNC[C@@H](C)NC[C@@H](C)N2C(=O)c3cc([N+](=O)[O-])cc4c3c(cc3cc(C)cnc34)C2=O)C1=O` [Example 25, (R,R)-1,2-bis-[2-(3-Nitro-7-methyl-5-azaphenanthrene-1, 10dicarboximido)propylamino]-(R)-1-methylethane Dihydromethanesulfonate], the IC50 came to 0.048 mg/L in data set [1] (L1210, 72 h) and 0.01 mg/L in data set [2] (72 h). The inhibition in vivo at 25 mg/kg worked out at 97% in the data set on DLD-2 human colon tumor (setting [6]) and 99% in data set [3] (setting [7]). In data set [3] (25 mg/kg, i.v. once daily for nine days, nude mice), the “MX-1 tumor regressions, FR=full regression” value is given as 1/8. Further, the responders at 25 mg/kg in data set [3] (setting [8]) is 75%. Further, the “Tumor Growth Inhibition activity against MX-1 (in words)” value in data set [3] (setting [4]) is listed as “moderate to excellent”. The same molecule yielded a solubility in “Solubility in water” of 4.82 mg/mL.
